Publication PMC7875478 (Journal of veterinary pharmacology and therapeutics, 2020)
Read-outs that look alike come from different tables or passages of the source. Blank lines part the entries; values can stand above or below the compound they belong to.

How the values were obtained:
[1] = Flunixin meglumine metabolism to 5-OH flunixin in equine liver microsomes; format: in vitro ADME; settings: for Vmax (or Vmax1) / Ki: 5-OH flunixin formation; for Ki: substrate inhibition model
equine CYP1A1 = settings: 5-OH flunixin formation
equine CYP3A93 = settings: 5-OH flunixin formation
equine CYP3A97 [2] = test system: equine CYP3A97
CYP2C92 = test: Incubation of FM with recombinant equine CYP2C92; format: in vitro ADME
[3] = Phenylbutazone metabolism in equine liver microsomes; format: in vitro ADME; settings: metabolite formation from PBZ
equine CYP3A97 [4] = test: Phenylbutazone metabolism to oxyphenbutazone by recombinant equine CYP3A97; format: in vitro ADME; settings: oxyphenbutazone formation from PBZ
[5] = test system: equine liver microsomal P450 forming gamma-hydroxy phenylbutazone; test: Cytochrome P450 inhibition assay with PBZ in equine liver microsomes; format: in vitro ADME; settings: horse, equine liver microsomes, pH 7.4
recombinant CYP3A97 = test: Cytochrome P450 inhibition assay with PBZ and recombinant CYP3A97; settings: recombinant CYP3A97, inhibitor 10 μM, PBZ 400 μM
[6] = Cytochrome P450 inhibition assay with PBZ in equine liver microsomes; format: in vitro ADME; settings: inhibitor 10 μM, PBZ 400 μM
[7] = read-out: Km (or Km1), 5-OH flunixin formation

Compound: Cc1c(Nc2ncc(O)cc2C(=O)O)cccc1C(F)(F)F [5-OH flunixin, 5-hydroxy-flunixin]
Best fit model ([1]; 5-OH flunixin formation from FM): Substrate Inhibition
Vmax (or Vmax1) ([1]; horse 1): 0.613 pmol/min/pmol P450
Vmax (or Vmax1) ([1]; horse 2): 0.803 pmol/min/pmol P450
Km ([1]; read-out: Km (or Km1), 5-OH flunixin formation, horse 1): 22.6 µM
Km ([1]; read-out: Km (or Km1), 5-OH flunixin formation, horse 2): 13.1 µM
Ki ([1]; horse 1): 710 µM
Ki ([1]; horse 2): 1190 µM
Best fit model (equine CYP1A1; CYP1A1): Biphasic
Vmax (or Vmax1) (equine CYP1A1; CYP1A1, high-affinity phase): 1.39 pmol/min/pmol P450
Vmax2 (equine CYP1A1; CYP1A1, low-affinity phase): 0.665 pmol/min/pmol P450
Km2 (equine CYP1A1; CYP1A1, second phase): 546.6 µM
Km (equine CYP1A1; read-out: Km (or Km1), CYP1A1, high-affinity phase): 495 µM
Best fit model (equine CYP3A93; CYP3A93): Biphasic
Vmax (or Vmax1) (equine CYP3A93; CYP3A93, high-affinity phase): 0.148 pmol/min/pmol P450
Vmax2 (equine CYP3A93; CYP3A93, low-affinity phase): 2.32 pmol/min/pmol P450
Km2 (equine CYP3A93; CYP3A93, second phase): 1539.8 µM
Km (equine CYP3A93; read-out: Km (or Km1), CYP3A93, high-affinity phase): 37.6 µM
Best fit model (equine CYP3A94; 5-OH flunixin formation): Michaelis-Menten
Vmax (or Vmax1) (equine CYP3A94; 5-OH flunixin formation): 1.39 pmol/min/pmol P450
Km (equine CYP3A94; [7]): 828 µM
Best fit model (equine CYP3A95; 5-OH flunixin formation): Michaelis-Menten
Vmax (or Vmax1) (equine CYP3A95; 5-OH flunixin formation): 0.675 pmol/min/pmol P450
Km (equine CYP3A95; [7]): 928 µM
Best fit model (equine CYP3A97 [2]; 5-OH flunixin formation): Michaelis-Menten
Vmax (or Vmax1) (equine CYP3A97 [2]; 5-OH flunixin formation): 0.450 pmol/min/pmol P450
Km (equine CYP3A97 [2]; [7]): 4.07 µM

Compound: Cc1c(Nc2ncccc2C(=O)O)cccc1C(F)(F)F [FM, flunixin meglumine]
Generation of metabolites by CYP2C92 (CYP2C92): did not generate any measurable metabolites

Compound: CCCCC1C(=O)N(c2ccccc2)N(c2ccc(O)cc2)C1=O (stereo not shown) [Oxyphenbutazone, oxyphenbutazone]
Best fit model [3]: Michaelis-Menten
Vmax ([3]; horse 1): 1.72 pmol/min/pmol P450
Vmax ([3]; horse 2): 0.279 pmol/min/pmol P450
Best fit model (equine CYP3A97 [4]): Michaelis-Menten
Vmax (equine CYP3A97 [4]): 2.66 pmol/min/pmol P450

Compound: O=c1cc(-c2ccccc2)oc2c1ccc1ccccc12 [alpha-naphthoflavone]
inhibition at 30 min, 10 μM [5]: 79%
Increased production of oxyphenbutazone compared to control (recombinant CYP3A97): 150%

Second part, led by results:

Km ([3]; horse 1): 29.2 µM
Km ([3]; horse 2): 79.3 µM
Compound: CC(O)CCC1C(=O)N(c2ccccc2)N(c2ccccc2)C1=O (stereo not shown) [Gamma-hydroxy phenylbutazone, gamma-hydroxy phenylbutazone]
Best fit model [3]: Michaelis-Menten
Vmax ([3]; horse 1): 1.56 pmol/min/pmol P450
Vmax ([3]; horse 2): 0.218 pmol/min/pmol P450

Oxyphenbutazone production decreased in microsomal incubations [6]: 53%
Compound: CC(C)(O)c1ccccc1CC[C@@H](SCC1(CC(=O)O)CC1)c1cccc(/C=C/c2ccc3ccc(Cl)cc3n2)c1 [montelukast]
